# PubChem BioAssay (NCI)
#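 Results reflect a 48-hour exposure of cells in 96-well plates to compound at five concentrations. TGI: total growth inhibition.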 Where a SMILES comes first, the peptide text is derived from it. [ ]: non-standard residue; d: D form. The star is where a group is joined. Cbz = O=C(OCc1ccccc1)*; Aib = CC(C)(N)C(=O)O; OBn = c1ccc(CO*)cc1
# Test system: NCI-H522 lung
# Experiment: NCI anticancer screen, dose series, 48 h
row,SMILES,TGI [µM]
1,N#Cc1sc2c(c1OC(=O)c1ccc(C(F)(F)F)cc1)c(=O)n(-c1ccccc1)c(=S)n2-c1ccccc1,3.51
2,CCOC(=O)/C(C(C)=O)=C(\OC(C)=O)c1ccncc1C(=O)O,> 100
3,CCOC(=O)CC/C(=N/Nc1ccc(Cl)cc1[N+](=O)[O-])C(=O)OCC,> 100
4,Nc1ncc2c(n1)-c1ccccc1OC2N1CCCC1 (configuration not stated),> 100
5,COc1cc(O)c2c(=O)c(OC)c(-c3ccc(OC)c(O)c3)oc2c1,> 100
6,O=c1c2c(no[n+]2[O-])c2ccccc2n1-c1ccccc1,3.27
7,CC(NC(=O)C(C)(C)NC(=O)C(CC(=O)OCc1ccccc1)NC(=O)OCc1ccccc1)C(N)=O (configuration not stated) (Cbz-Asp(OBn)-[Aib]-Ala-NH2; configuration not given here),> 100
8,Clc1ccc(C=NC23CC4CC(CC(C4)C2)C3)c(Cl)c1,> 10
9,c1ccc(C(C(=Nc2ccc(Cc3ccc(N=C(C(c4ccccc4)c4ccccc4)N4CC4)cc3)cc2)N2CC2)c2ccccc2)cc1,19.8
10,OCCCc1ccc2c(c1)[C@H](CO)[C@@H](c1ccc(O)cc1)O2,> 100
11,c1ccc(C2=NOC(c3ccccc3)N2C23CC4CC(CC(C4)C2)C3)cc1 (configuration not stated),> 10
12,CCOC(=O)C(NC(=O)CC)(N1CCN(c2cc3c(cc2F)c(=O)c(C(=O)O)cn3C2CC2)CC1)C(F)(F)F (configuration not stated),> 100
13,CC12c3c4ccc(C=O)c3Oc3ccc(C=O)c(c31)Oc1ccc(C=O)c(c12)O4,> 25
14,O=C(CN1C(=O)CC(c2ccccc2)(c2ccccc2)C1=O)N1CCN(CCO)CC1,> 100
15,O=[N+]([O-])c1cc2oc(CSc3ccccc3)nc2cc1Cl,> 100
16,CC(C)(CO)CNc1nc(N)nc(Cl)c1/C=N/O,> 100
17,COc1ccc2oc(=N)c(C(=O)Nc3ccccc3)cc2c1,6.4
18,O=c1onc2n1-c1cc(Cl)ccc1C(=S)N1CSCC21 (configuration not stated),> 100
19,CN1CC[C@]2(c3cccc(O)c3)CC(=O)/C(=C/c3ccccc3)[C@@H]1C2,11.2
20,O=C(O)C(O)C(O)C(O)C(O)CO (configuration not stated),> 100
21,OC(C#CCN1CCCC1)(c1ccccc1)c1ccccc1Cl (configuration not stated),41.6
22,CCc1n[nH]c(=O)n1-c1ccc2ccccc2c1,> 100
23,CSc1nc2c(c(N(C)C)n1)C(O)n1c(nc3ccccc31)S2 (configuration not stated),39.2
24,O=C1CSC2(CC(/C=C/c3cccs3)=NN2c2cccc(S(=O)(=O)O)c2)N1c1nc2ccccc2s1 (configuration not stated),> 100
25,C[C@@H]1CCC2[C@@H](C)[C@@H](O[C@H]3O[C@@H]4O[C@@]5(C)CCC6[C@H](C)CCC([C@H]3C)[C@]64OO5)O[C@@H]3O[C@@]4(C)CCC1[C@@]23OO4 (some centres not stated),> 25
26,O=C(c1ccccc1)c1ccc2c(c1)NC(=O)c1ccccc1SSc1ccccc1C(=O)N2,> 100
27,COc1ccc(CC(N)=O)cc1OC,> 1250
28,CCOC(=O)CNC(=O)NC12CC3CC(CC(C3)C1)C2,> 536
29,O=C(NCCCl)O/N=C/c1cccnc1,> 100

# Test system: NCI/ADR-RES ovarian
# Experiment: NCI anticancer screen, dose series, 48 h
row,SMILES,TGI [µM]
1,Cc1cc(N(C)C)c2ccccc2[n+]1CCCCCCCCCC[n+]1c(C)cc(N(C)C)c2ccccc21,43.9
2,CO/N=C(/C(=O)OC)c1ccccc1COc1ccccc1C(F)(F)F,> 100
3,N#Cc1sc2c(c1OC(=O)c1ccc(C(F)(F)F)cc1)c(=O)n(-c1ccccc1)c(=S)n2-c1ccccc1,> 100
4,CCOC(=O)/C(C(C)=O)=C(\OC(C)=O)c1ccncc1C(=O)O,> 100
5,CCOC(=O)CC/C(=N/Nc1ccc(Cl)cc1[N+](=O)[O-])C(=O)OCC,> 100
6,Nc1ncc2c(n1)-c1ccccc1OC2N1CCCC1 (configuration not stated),> 100
7,COc1cc(O)c2c(=O)c(OC)c(-c3ccc(OC)c(O)c3)oc2c1,> 100
8,O=c1c2c(no[n+]2[O-])c2ccccc2n1-c1ccccc1,21.6
9,CC(NC(=O)C(C)(C)NC(=O)C(CC(=O)OCc1ccccc1)NC(=O)OCc1ccccc1)C(N)=O (configuration not stated) (Cbz-Asp(OBn)-[Aib]-Ala-NH2; configuration not given here),> 100
10,Clc1ccc(C=NC23CC4CC(CC(C4)C2)C3)c(Cl)c1,> 10
11,c1ccc(C(C(=Nc2ccc(Cc3ccc(N=C(C(c4ccccc4)c4ccccc4)N4CC4)cc3)cc2)N2CC2)c2ccccc2)cc1,24.2
12,OCCCc1ccc2c(c1)[C@H](CO)[C@@H](c1ccc(O)cc1)O2,> 100
13,c1ccc(C2=NOC(c3ccccc3)N2C23CC4CC(CC(C4)C2)C3)cc1 (configuration not stated),> 10
14,CCOC(=O)C(NC(=O)CC)(N1CCN(c2cc3c(cc2F)c(=O)c(C(=O)O)cn3C2CC2)CC1)C(F)(F)F (configuration not stated),> 100
15,CC12c3c4ccc(C=O)c3Oc3ccc(C=O)c(c31)Oc1ccc(C=O)c(c12)O4,> 25
16,O=C(CN1C(=O)CC(c2ccccc2)(c2ccccc2)C1=O)N1CCN(CCO)CC1,> 100

row,SMILES,TGI [µM]
1,O=[N+]([O-])c1cc2oc(CSc3ccccc3)nc2cc1Cl,40
2,CC(C)(CO)CNc1nc(N)nc(Cl)c1/C=N/O,> 100
3,COc1ccc2oc(=N)c(C(=O)Nc3ccccc3)cc2c1,44
4,O=c1onc2n1-c1cc(Cl)ccc1C(=S)N1CSCC21 (configuration not stated),> 100
5,CN1CC[C@]2(c3cccc(O)c3)CC(=O)/C(=C/c3ccccc3)[C@@H]1C2,16.1
6,O=C(O)C(O)C(O)C(O)C(O)CO (configuration not stated),> 100
7,OC(C#CCN1CCCC1)(c1ccccc1)c1ccccc1Cl (configuration not stated),94.8
8,CCc1n[nH]c(=O)n1-c1ccc2ccccc2c1,> 100
9,CSc1nc2c(c(N(C)C)n1)C(O)n1c(nc3ccccc31)S2 (configuration not stated),> 100
10,O=C1CSC2(CC(/C=C/c3cccs3)=NN2c2cccc(S(=O)(=O)O)c2)N1c1nc2ccccc2s1 (configuration not stated),> 100
11,C[C@@H]1CCC2[C@@H](C)[C@@H](O[C@H]3O[C@@H]4O[C@@]5(C)CCC6[C@H](C)CCC([C@H]3C)[C@]64OO5)O[C@@H]3O[C@@]4(C)CCC1[C@@]23OO4 (some centres not stated),> 25
12,O=C(c1ccccc1)c1ccc2c(c1)NC(=O)c1ccccc1SSc1ccccc1C(=O)N2,> 100
13,COc1ccc(CC(N)=O)cc1OC,> 1250
14,CCOC(=O)CNC(=O)NC12CC3CC(CC(C3)C1)C2,> 550
15,O=C(NCCCl)O/N=C/c1cccnc1,> 100

# Test system: COLO 205 colon
# Experiment: NCI anticancer screen, dose series, 48 h
row,SMILES,TGI [µM]
1,Cc1cc(N(C)C)c2ccccc2[n+]1CCCCCCCCCC[n+]1c(C)cc(N(C)C)c2ccccc21,6.07
2,CO/N=C(/C(=O)OC)c1ccccc1COc1ccccc1C(F)(F)F,> 100
3,N#Cc1sc2c(c1OC(=O)c1ccc(C(F)(F)F)cc1)c(=O)n(-c1ccccc1)c(=S)n2-c1ccccc1,46.4
4,CCOC(=O)/C(C(C)=O)=C(\OC(C)=O)c1ccncc1C(=O)O,> 100
5,CCOC(=O)CC/C(=N/Nc1ccc(Cl)cc1[N+](=O)[O-])C(=O)OCC,> 100
6,Nc1ncc2c(n1)-c1ccccc1OC2N1CCCC1 (configuration not stated),> 100
7,COc1cc(O)c2c(=O)c(OC)c(-c3ccc(OC)c(O)c3)oc2c1,> 100
8,O=c1c2c(no[n+]2[O-])c2ccccc2n1-c1ccccc1,20.3
9,CC(NC(=O)C(C)(C)NC(=O)C(CC(=O)OCc1ccccc1)NC(=O)OCc1ccccc1)C(N)=O (configuration not stated) (Cbz-Asp(OBn)-[Aib]-Ala-NH2; configuration not given here),> 100
10,Clc1ccc(C=NC23CC4CC(CC(C4)C2)C3)c(Cl)c1,> 10
11,c1ccc(C(C(=Nc2ccc(Cc3ccc(N=C(C(c4ccccc4)c4ccccc4)N4CC4)cc3)cc2)N2CC2)c2ccccc2)cc1,16.7
12,OCCCc1ccc2c(c1)[C@H](CO)[C@@H](c1ccc(O)cc1)O2,> 100
13,c1ccc(C2=NOC(c3ccccc3)N2C23CC4CC(CC(C4)C2)C3)cc1 (configuration not stated),> 10
14,CCOC(=O)C(NC(=O)CC)(N1CCN(c2cc3c(cc2F)c(=O)c(C(=O)O)cn3C2CC2)CC1)C(F)(F)F (configuration not stated),> 100
15,CC12c3c4ccc(C=O)c3Oc3ccc(C=O)c(c31)Oc1ccc(C=O)c(c12)O4,> 25
16,O=C(CN1C(=O)CC(c2ccccc2)(c2ccccc2)C1=O)N1CCN(CCO)CC1,> 100
17,O=[N+]([O-])c1cc2oc(CSc3ccccc3)nc2cc1Cl,44.9
